The text below walks through data of patent EP0024616A1, “1-(3'-Acyloxyphenyl)-2-aminoethanols, their acid addition salts, pharmaceutical compositions containing them and process for their preparation” (Klinge Pharma GmbH, priority 1979, dated 1981).

Each structure is given as a SMILES string. ≈ marks a conversion by molar mass, not a printed value. Where a name gives a salt, the structure may show the parent alone. Read-outs that look alike come from different tables or passages of the source.

One data set has as its system Blutdruck der Katze. Description: Blood pressure increasing effect after intraduodenal application in anaesthetised cats. The format is in vivo, Katzen. To be noted: Felis catus, aqueous solution, anaesthetised cat; for change in vivo at 3 mg/kg: 3 mg/kg intraduodenal; for change in vivo at 10 mg/kg: 10 mg/kg intraduodenal; for change in vivo at 30 mg/kg: 30 mg/kg intraduodenal; for change in vivo at 1 mg/kg: 1 mg/kg intraduodenal; for change in vivo at 0.3 mg/kg: 0.3 mg/kg intraduodenal. The procedure:
An 2-4 kg schweren, männlichen und weiblichen, narkotisierten Katzen [Chloralose (70 mg/kg) und Urethan 25 proz. (200 mg/kg)i.p.] wurden die Substanzen in wäßriger Lösung intraduodenal appliziert. Der Anstieg des systolischen und des diastolischen Blutdruckes wird in Prozenten des Ausgangswertes angegeben. N bedeutet Anzahl der Versuchstiere pro Versuch.

The test system of the next data set is Blutdruck. The conditions noted are these: oral; from the literature (E. Muschöll 1967); cited from earlier work.
The nature of data set [1]: Minimum solubility in water. To be noted: for Mindestlöslichkeit in Wasser: Tab. 1, minimum solubility (lower bound) of the salts in water; for solubility: water.
Setting [2] is: read-out: Diastol. Blutdruck (Anstieg).
Where [3] appears, read: read-out: Systol. Blutdruck (Anstieg).

What is called solubility is how much of the substance goes into solution per volume. Read a high solubility as a readily soluble substance.

Consider `NCC(O)c1cccc(O)c1` (racemic) [Norfenefrin, DL-1-(3'-Hydroxyphenyl)-2-aminoethanol, reference compound], for which, in the data set on Blutdruck der Katze (setting [2]), the change in vivo at 3 mg/kg amounted to 18 ± 6%, the change in vivo at 10 mg/kg is 25 ± 5% and the change in vivo at 30 mg/kg was 37 ± 9%. For the same compound, in the data set with Blutdruck der Katze (setting [3]), the change in vivo at 3 mg/kg worked out at 25 ± 9%, the change in vivo at 10 mg/kg amounted to 34 ± 7% and the change in vivo at 30 mg/kg was 41 ± 7%. Also, the “orale Wirksamkeit” value in the data set on Blutdruck is listed as “geringe orale Wirksamkeit”.
Turning to `CC(=O)Oc1cccc(C(O)CN)c1.Cl` (centres unmarked) [Verbindung 1, 1-(3'-Acetoxyphenyl)-2-aminoethanol-hydrochlorid], in the data set with Blutdruck der Katze (setting [2]), the change in vivo at 1 mg/kg was found to be 20 ± 10%, the change in vivo at 3 mg/kg amounted to 29 ± 6% and the change in vivo at 10 mg/kg came out at 48 ± 8%. In addition, in the data set with Blutdruck der Katze (setting [3]), the change in vivo at 1 mg/kg was 27 ± 10%, the change in vivo at 3 mg/kg amounted to 35 ± 8% and the change in vivo at 10 mg/kg amounted to 59 ± 6%. In addition, the “Mindestlöslichkeit in Wasser” value in data set [1] is recorded as 50%.
Take `CCC(=O)Oc1cccc(C(O)CN)c1` (centres unmarked) [Verbindung 2]: the “Mindestlöslichkeit in Wasser” value in data set [1] turned out to be 50%.
Still for that read-out and setting: as for `CCCC(=O)Oc1cccc(C(O)CN)c1` (centres unmarked) [Verbindung 3], the figure is 50%; as for `CC(C)C(=O)Oc1cccc(C(O)CN)c1` (centres unmarked) [Verbindung 4], 50%.
On to `CCCCC(=O)Oc1cccc(C(O)CN)c1` (centres unmarked) [Verbindung 5], for which, in the data set on Blutdruck der Katze (setting [2]), the change in vivo at 0.3 mg/kg worked out at 19 ± 11%, the change in vivo at 1 mg/kg stood at 31 ± 8% and the change in vivo at 3 mg/kg came out at 29 ± 8%. In the data set with Blutdruck der Katze (setting [3]), the change in vivo at 0.3 mg/kg was 20 ± 10%, the change in vivo at 1 mg/kg turned out to be 33 ± 7% and the change in vivo at 3 mg/kg is 42 ± 10%. Also, the “Mindestlöslichkeit in Wasser” value in data set [1] is 50%.
In the case of `CC(C)CC(=O)Oc1cccc(C(O)CN)c1` (centres unmarked) [Verbindung 6], the “Mindestlöslichkeit in Wasser” value in data set [1] was found to be 50%.
Turning to `CC(C)(C)C(=O)Oc1cccc(C(O)CN)c1.Cl` (centres unmarked) [Verbindung 7, 1-(3'-Pivaloyloxyphenyl)-2-aminoethanol-hydrochlorid], in the data set on Blutdruck der Katze (setting [2]), the change in vivo at 1 mg/kg is 17 ± 6%, the change in vivo at 3 mg/kg was 29 ± 5% and the change in vivo at 10 mg/kg was 74 ± 13%. For the same compound, in the data set on Blutdruck der Katze (setting [3]), the change in vivo at 1 mg/kg came out at 17 ± 7%, the change in vivo at 3 mg/kg is 37 ± 6% and the change in vivo at 10 mg/kg was found to be 79 ± 8%. The “Mindestlöslichkeit in Wasser” value in data set [1] turned out to be 50%.
In the case of `CCCCCC(=O)Oc1cccc(C(O)CN)c1` (centres unmarked) [Verbindung 8], the “Mindestlöslichkeit in Wasser” value in data set [1] turned out to be 50%.
On the same count and under the same terms, as for `CC(C)CCC(=O)Oc1cccc(C(O)CN)c1` (centres unmarked) [Verbindung 9], the figure is 50%.
As for `CCC(CC)C(=O)Oc1cccc(C(O)CN)c1` (centres unmarked) [Verbindung 10], in the data set on Blutdruck der Katze (setting [2]), the change in vivo at 1 mg/kg was 19 ± 3%, the change in vivo at 3 mg/kg came to 48 ± 11% and the change in vivo at 10 mg/kg worked out at 89 ± 14%. Moreover, in the data set on Blutdruck der Katze (setting [3]), the change in vivo at 1 mg/kg worked out at 25 ± 5%, the change in vivo at 3 mg/kg came out at 48 ± 11% and the change in vivo at 10 mg/kg came out at 85 ± 11%. In data set [1], the “Mindestlöslichkeit in Wasser” value came to 50%.
In the case of `CC(C)(C)CC(=O)Oc1cccc(C(O)CN)c1` (centres unmarked) [Verbindung 11], the “Mindestlöslichkeit in Wasser” value in data set [1] is on record as 50%.
Consider `CCCCCCC(=O)Oc1cccc(C(O)CN)c1.Cl` (centres unmarked) [Verbindung 12, 1-(3'-Heptanoyloxyphenyl)-2-aminoethanol-hydrochlorid], for which, in the data set with Blutdruck der Katze (setting [2]), the change in vivo at 1 mg/kg was 17 ± 7%, the change in vivo at 3 mg/kg worked out at 65 ± 17% and the change in vivo at 10 mg/kg was 51 ± 11%. In the data set with Blutdruck der Katze (setting [3]), the change in vivo at 1 mg/kg came out at 21 ± 8%, the change in vivo at 3 mg/kg was 70 ± 14% and the change in vivo at 10 mg/kg was determined as 61 ± 10%. Also, the “Mindestlöslichkeit in Wasser” value in data set [1] came out at 50%.
As to `CCCC(CC)(CC)C(=O)Oc1cccc(C(O)CN)c1` (centres unmarked) [Verbindung 13], the “Mindestlöslichkeit in Wasser” value in data set [1] came to 50%.
On to `CCCCCCCCCCCC(=O)Oc1cccc(C(O)CN)c1` (centres unmarked) [Verbindung 14], for which, in the data set with Blutdruck der Katze (setting [2]), the change in vivo at 1 mg/kg was found to be 16 ± 4%, the change in vivo at 3 mg/kg is 25 ± 8% and the change in vivo at 10 mg/kg is 90 ± 25%. Besides, in the data set on Blutdruck der Katze (setting [3]), the change in vivo at 1 mg/kg was 23 ± 6%, the change in vivo at 3 mg/kg worked out at 39 ± 9% and the change in vivo at 10 mg/kg came to 87 ± 15%. The solubility in data set [1] was 150 mg/mL (≈ 447 mM).
Take `NCC(O)c1cccc(OC(=O)Cc2ccccc2)c1` (centres unmarked) [Verbindung 15]: in the data set on Blutdruck der Katze (setting [2]), the change in vivo at 1 mg/kg was 20 ± 4%, the change in vivo at 3 mg/kg was 36 ± 11% and the change in vivo at 10 mg/kg is 81 ± 15%. In addition, in the data set on Blutdruck der Katze (setting [3]), the change in vivo at 1 mg/kg was found to be 24 ± 3%, the change in vivo at 3 mg/kg turned out to be 50 ± 11% and the change in vivo at 10 mg/kg amounted to 88 ± 15%. In data set [1], the “Mindestlöslichkeit in Wasser” value is reported as 50%.
Turning to `CC(C(=O)Oc1cccc(C(O)CN)c1)c1ccccc1` (centres unmarked) [Verbindung 16], in the data set on Blutdruck der Katze (setting [2]), the change in vivo at 1 mg/kg turned out to be 10 ± 3%, the change in vivo at 3 mg/kg amounted to 31 ± 8% and the change in vivo at 10 mg/kg amounted to 55 ± 13%. In addition, in the data set on Blutdruck der Katze (setting [3]), the change in vivo at 1 mg/kg was 20 ± 7%, the change in vivo at 3 mg/kg was determined as 38 ± 12% and the change in vivo at 10 mg/kg came out at 63 ± 9%. Further, in data set [1], the “Mindestlöslichkeit in Wasser” value was found to be 50%.
For `CCC(C(=O)Oc1cccc(C(O)CN)c1)c1ccccc1` (centres unmarked) [Verbindung 17], in the data set on Blutdruck der Katze (setting [2]), the change in vivo at 1 mg/kg worked out at 25 ± 7%, the change in vivo at 3 mg/kg came out at 31 ± 6% and the change in vivo at 10 mg/kg came out at 38 ± 6%. Besides, in the data set with Blutdruck der Katze (setting [3]), the change in vivo at 1 mg/kg stood at 29 ± 7%, the change in vivo at 3 mg/kg was 42 ± 9% and the change in vivo at 10 mg/kg was determined as 47 ± 10%. Further, in data set [1], the solubility amounted to 200 mg/mL (≈ 668 mM).
Regarding `NCC(O)c1cccc(OC(=O)c2ccccc2)c1` (centres unmarked) [Verbindung 18], the “Mindestlöslichkeit in Wasser” value in data set [1] was determined as 50%.
With `Cc1ccccc1C(=O)Oc1cccc(C(O)CN)c1` (centres unmarked) [Verbindung 19], in the data set on Blutdruck der Katze (setting [2]), the change in vivo at 1 mg/kg came to 15 ± 7%, the change in vivo at 3 mg/kg worked out at 21 ± 6% and the change in vivo at 10 mg/kg came out at 32 ± 11%. Also, in the data set with Blutdruck der Katze (setting [3]), the change in vivo at 1 mg/kg stood at 17 ± 5%, the change in vivo at 3 mg/kg is 26 ± 7% and the change in vivo at 10 mg/kg came to 37 ± 7%. In addition, the “Mindestlöslichkeit in Wasser” value in data set [1] stood at 50%.
With `Cc1ccc(C(=O)Oc2cccc(C(O)CN)c2)cc1` (centres unmarked) [Verbindung 20, 1-[3'-(4'-Methylbenzoyloxy)phenyl]-2-aminoethanol-hydrochlorid], in the data set on Blutdruck der Katze (setting [2]), the change in vivo at 0.3 mg/kg is 17 ± 10%, the change in vivo at 1 mg/kg amounted to 26 ± 6% and the change in vivo at 3 mg/kg turned out to be 100 ± 24%. In the data set with Blutdruck der Katze (setting [3]), the change in vivo at 0.3 mg/kg was 20 ± 10%, the change in vivo at 1 mg/kg is 28 ± 6% and the change in vivo at 3 mg/kg amounted to 122 ± 25%. For the same compound, the “Mindestlöslichkeit in Wasser” value in data set [1] was determined as 50%.
`CC(=O)NCC(O)c1cccc(O)c1` (centres unmarked) [Verbindung 21, reference compound] came in with a solubility in data set [1] of 100 mg/mL (≈ 512 mM).
As to `CC(=O)NCC(OC(C)=O)c1cccc(O)c1` (centres unmarked) [Verbindung 22, reference compound], the solubility in data set [1] is 12 mg/mL (≈ 50.6 mM).
`CC(C)(C)C(=O)NCC(O)c1cccc(O)c1` (centres unmarked) [Verbindung 23, reference compound]: the solubility in data set [1] was 10 mg/mL (≈ 42.1 mM).
In data set [1], `CC(C)(C)C(=O)NCC(OC(=O)C(C)(C)C)c1cccc(O)c1` (centres unmarked) [Verbindung 24, reference compound] had a solubility of 0.1 mg/mL (≈ 0.311 mM).
For `CC(C)(C)C(=O)NCC(OC(=O)C(C)(C)C)c1cccc(OC(=O)C(C)(C)C)c1` (centres unmarked) [Verbindung 25, reference compound], the solubility in data set [1] stood at 0.1 mg/mL (≈ 0.247 mM).
